Experimental data: article PMC12454639, “Direct disassembly of α-syn preformed fibrils into α-syn monomers by an all-D-peptide” (NPJ Parkinson's Disease, 2025)
Square brackets hold non-standard residues; d marks the D form. Peptide text beside a SMILES is read from it.

Legend:
small α-syn PFF = test: Western blot of small α-syn PFF; format: biochemical; settings: 200 nM PFF with 250, 500, 750, 1000 nM SVD-1a, 72 h, 37 °C; antibody Syn211
Method: Samples of 200 nM small α-syn PFF or α-syn monomer were incubated with 0, 250, 500, 750 and 1000 nM SVD-1a for 72 h at 37 °C in PBS pH 7.4 with 0.05% sodium azide. Samples were then resolved via SDS–PAGE on 12% TGX gels (Bio-Rad, Hercules, USA) using the Mini-PROTEAN Tetra Cell (Bio-Rad, Hercules, USA). Proteins were transferred to a PVDF membrane (0.2 µm pore size) (Trans-Blot Turbo Mini PVDF Transfer Pack, Bio-Rad, Hercules, USA) at 25 V, 1.3 A for 7 min. Blocking of the membrane was carried out with 2% nonfat dried milk powder in TBS + 0.05% Tween 20 for 1 h at room temperature. Anti-α-synuclein antibody Syn211 (RRID:AB_628318, Santa Cruz Biotechnology, Dallas, TX, USA) was used as primary antibody at a concentration of 1 µg/ml in TBS-T for 1 h at RT. As a secondary antibody, an HRP-coupled goat anti-mouse IgG (RRID:AB_228307, Thermo Fisher Scientific, Waltham, MA, USA) was used at 0.2 µg/ml in TBS-T for 1 h at RT. […]
Supplementary Figure 11: Western blot of small α-syn PFF samples incubated with SVD-1a. […] A PFF and monomer sample that were incubated without SVD-1a served as controls. α-Syn was detected with Syn211. A prominent monomer band was present between the 15 kDa- and 20 kDa marker bands, detected with shorter exposure time (left). […] In the upper part of the blot, above the marker range, PFFs were detected using longer exposure time due to weaker signal (right).

α-syn monomer = test: AFM of de novo aggregation endpoint samples; format: biochemical; settings: 10 µM α-syn + 20 µM SVD-1a
Method: Fig. 7 De novo aggregation analysis of α-syn in the presence and absence of SVD-1a. A De novo ThT assay of 10 µM α-syn with and without 20 µM SVD-1a. ThT fluorescence progression was measured in a 96-well non-binding half-area plate (Corning, USA) with a FLUOStar plate reader (BMG labtech, GE) at λex = 448 nm and λem = 482 nm with 300 rpm continuous orbital shaking between reads. For induction of aggregation, one borosilicate bead per well was added (d = 3 mm, Hilgenberg, GE). Data are shown as mean values with ±SD (n = 5). B CD secondary structure analysis of de novo aggregation samples. Samples were incubated as described in (A) without added ThT (n = 3) and subsequently pooled for CD analysis. Far-UV ellipticity of the samples was measured in a quartz cuvette (l = 10 mm) in a J-1100 CD-spectrometer (Jasco, GE). In addition to (A), a sample with 20 µM SVD-1a alone was incubated under identical conditions and later used as a reference for the sample with α-syn and SVD-1a. For this sample (α-syn + SVD-1a (after incubation)), the SVD-1a reference subtracted CD spectrum is shown. […] D α-Syn in the flow through (MWCO < 100 kDa) was quantified using an α-syn specific ELISA (BioLegend, Human α-Synuclein (Colorimetric), 448607, n = 3). E Retentate and flow-through samples were analyzed using SDS–PAGE with silver staining. […]

In the case of CC[C@@H](C)[C@@H](NC(=O)[C@@H](Cc1c[nH]cn1)NC(=O)[C@@H](CCC(=O)O)NC(=O)[C@@H](CCC(N)=O)NC(=O)[C@@H](Cc1c[nH]c2ccccc12)NC(=O)[C@@H](Cc1ccc(O)cc1)NC(=O)[C@H](NC(=O)[C@@H](CCC(=O)O)NC(=O)[C@@H](Cc1c[nH]cn1)NC(=O)[C@H](NC(=O)[C@H]1CCCN1C(=O)[C@@H](CC(C)C)NC(=O)[C@H](N)CCCNC(=N)N)[C@H](C)O)[C@H](C)O)C(=O)N[C@H](Cc1c[nH]c2ccccc12)C(=O)N[C@H](Cc1c[nH]cn1)C(=O)N[C@H](C)C(=O)N[C@H](CCCNC(=N)N)C(=O)N[C@H](CCCNC(=N)N)C(=O)N[C@H](CCCNC(=N)N)C(=O)N[C@H](CCCNC(=N)N)C(=O)N[C@H](CCCNC(=N)N)C(N)=O [SVD-1a] (H-[dR][dL][dP][dT][dH][dE][dT][dY][dW][dQ][dE][dH][dI][dW][dH][dA][dR][dR][dR][dR][dR]-NH2), the “intensity of higher MW α-syn bands” value (small α-syn PFF) was “progressively reduced in presence of higher SVD-1a concentrations” and the “fibrils in endpoint samples (AFM)” value (α-syn monomer) was “clearly do not contain any fibrils”.
